Where two headings read alike, the source gives them in different places.
Legend:
PrP^C [1] = assay type: cell-based, human; conditions: ReN VM ATP1A1^r/r cells whose ATP1A1 does not bind CGs
PrP^C [2] = assay type: cell-based, human
ReN VM cells [3] = conditions: human
in vitro [4] = conditions: Atp1a1^S/S (gene-edited), mouse, brain homogenate
PrP^C [5] = assay type: cell-based, human; conditions: differentiated T98G cells
HeLa cells = conditions: cited from earlier work
[6] = cited from earlier work
human MDR1 [7] = molecular target: T1, human MDR1 (Homo sapiens, UniProt P08183); conditions: dog, MDCK-MDR1
T1 sequence (P08183 whole entry): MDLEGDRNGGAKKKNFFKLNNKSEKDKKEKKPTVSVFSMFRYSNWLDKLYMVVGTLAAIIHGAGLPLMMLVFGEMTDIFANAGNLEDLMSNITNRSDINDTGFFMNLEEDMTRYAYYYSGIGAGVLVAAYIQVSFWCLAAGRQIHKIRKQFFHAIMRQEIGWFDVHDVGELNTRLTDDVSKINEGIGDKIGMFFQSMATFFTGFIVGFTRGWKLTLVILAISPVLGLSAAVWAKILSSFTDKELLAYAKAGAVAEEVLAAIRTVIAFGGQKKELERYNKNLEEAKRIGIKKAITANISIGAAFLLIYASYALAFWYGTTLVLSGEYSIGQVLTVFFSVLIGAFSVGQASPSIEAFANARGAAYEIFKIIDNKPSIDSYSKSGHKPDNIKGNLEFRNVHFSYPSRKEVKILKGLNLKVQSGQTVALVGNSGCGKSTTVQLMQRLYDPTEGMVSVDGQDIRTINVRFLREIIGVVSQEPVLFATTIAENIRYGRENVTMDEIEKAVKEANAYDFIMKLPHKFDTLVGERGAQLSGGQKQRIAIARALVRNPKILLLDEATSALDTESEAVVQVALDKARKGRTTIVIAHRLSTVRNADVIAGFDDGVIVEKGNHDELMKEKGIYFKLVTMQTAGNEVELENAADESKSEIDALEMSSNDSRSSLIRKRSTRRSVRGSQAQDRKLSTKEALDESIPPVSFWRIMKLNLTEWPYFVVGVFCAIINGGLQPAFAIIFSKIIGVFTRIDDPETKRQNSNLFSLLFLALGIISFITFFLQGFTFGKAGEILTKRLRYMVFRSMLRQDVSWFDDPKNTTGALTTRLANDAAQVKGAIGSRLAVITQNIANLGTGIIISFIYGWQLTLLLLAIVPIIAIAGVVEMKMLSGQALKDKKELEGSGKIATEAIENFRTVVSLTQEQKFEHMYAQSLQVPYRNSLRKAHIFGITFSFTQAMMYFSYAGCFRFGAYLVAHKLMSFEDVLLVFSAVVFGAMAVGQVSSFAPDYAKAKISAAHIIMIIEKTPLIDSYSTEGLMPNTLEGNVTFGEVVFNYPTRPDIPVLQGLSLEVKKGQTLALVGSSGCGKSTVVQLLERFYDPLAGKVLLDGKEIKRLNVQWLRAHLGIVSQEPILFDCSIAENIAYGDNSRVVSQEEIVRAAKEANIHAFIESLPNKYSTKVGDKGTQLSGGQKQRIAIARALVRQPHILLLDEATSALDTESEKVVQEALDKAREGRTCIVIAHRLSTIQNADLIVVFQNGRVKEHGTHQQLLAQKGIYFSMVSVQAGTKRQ

in vitro [8] = conditions: both, human, brain homogenate
in vitro [9] = conditions: guinea pig, plasma
in vitro [10] = conditions: guinea pig, brain homogenate
in vivo = conditions: Atp1a1^S/S (gene-edited), mouse
[11] = molecular target: human MDR1 (P-glycoprotein, ABCB1) (Homo sapiens, UniProt P08183); assay: in vitro; conditions: dog; for Papp A→B: MDCK-MDR1, Papp A–B; for Papp B→A: MDCK-MDR1, Papp B–A
human MDR1 (P-glycoprotein, ABCB1), sequence (P08183 whole entry): as above

[12] = Atp1a1^S/S (gene-edited), mouse, in vivo; for Abrain / Cbrain (mean total brain concentration) / Cu,brain (unbound brain concentration): 0.6 mg/kg
human MDR1 [13] = molecular target: T1, human MDR1; parameters: host or cells: MDCKII (canine kidney) cells, canine MDR1 deleted, human MDR1 gene inserted; method as in PMID 22906709, PMID 15620875; conditions: published values; cited from earlier work
ReN VM cells [14] = conditions: cited from earlier work
[15] = in vivo, po; cited from earlier work
[16] = in vivo, iv; cited from earlier work

**Q.** Which results are given for `COC1CC(OC2CCC3(C)C(CCC4C3CCC3(C)C(C5=CC(=O)OC5)C(OC(C)=O)CC43O)C2)OC(C)C1=O` (centres unmarked) [KDC203, 4′-dehydro-oleandrin]?
**A.** reduction in PrP^C levels (PrP^C [1]): no KDC203-mediated reduction in PrP^C levels was observed; maximum reduction in steady-state PrP^C levels (3F4-reactive signals) (PrP^C [2]): 84%; concentrations at which cytotoxicity observed (ReN VM cells [3]): > 40 nM; toxicity threshold (concentration at which all three cellular health indicators dropped to 75% of untreated) (ReN VM cells [3]): 46 nM; fraction unbound (in vitro [4]): 0.33; reduction in PrP^C levels (PrP^C [5]): recapitulate the KDC203-dependent reduction in PrP^C levels; IC50 (HeLa cells): 46 nM; oral effectiveness relative to oleandrin (lethal doses oral versus intravenous), higher by ([6]; cats): approximately 20%; oral toxicity relative to oleandrin ([6]; in vivo, po): almost twofold lower; Papp A–B (human MDR1 [7]): 7.24; Papp B–A (human MDR1 [7]): 70.60; reduction of extrusion on addition of Zosuquidar (human MDR1 [7]): more than 50%; fraction unbound (in vitro [8]): 0.395; fraction unbound (in vitro [9]): 0.359; estimated total brain concentration attainable in human brains: 27 nM; estimated unbound concentration attainable in human brains: ~10 nM; fraction unbound (in vitro [10]): 0.294; Kp uu (in vivo): 0.44; Papp A→B [11]: 11.6 ×10⁻⁶ cm/s; Papp B→A [11]: 41.9 ×10⁻⁶ cm/s; Vu,brain [12]: 2.90 mL/g brain; brain levels relative to heart levels ([12]; sc): 3.5 fold; total brain concentration of KDC203 relative to oleandrin ([12]; sc): 1.5 fold; Abrain ([12]; sc): 16.75 ng/g brain; Cbrain (mean total brain concentration) ([12]; sc): 30.46 nM; Cu,brain (unbound brain concentration) ([12]; sc): 10.05 nM

**Q.** Which “PappA-B, published value” (human MDR1 [13]) does the source give for `C[C@H]1O[C@@H](O[C@H]2[C@@H](O)C[C@H](O[C@H]3[C@@H](O)C[C@H](O[C@H]4CC[C@@]5(C)[C@H](CC[C@@H]6[C@@H]5C[C@@H](O)[C@]5(C)[C@@H](C7=CC(=O)OC7)CC[C@]65O)C4)O[C@@H]3C)O[C@@H]2C)C[C@H](O)[C@@H]1O` [digoxin] here?
**A.** 0.5 ×10⁻⁶ cm/s

**Q.** With `CO[C@H]1C[C@H](O[C@H]2CC[C@@]3(C)[C@H](CC[C@@H]4[C@@H]3CC[C@]3(C)[C@@H](C5=CC(=O)OC5)[C@@H](OC(C)=O)C[C@]43O)C2)O[C@@H](C)[C@@H]1O` [oleandrin, reference compound] as the molecule, how does the “concentrations at which toxic” value (ReN VM cells [14]) read?
**A.** exceeding 4 nM

**Q.** What about the plasma levels [15] of the same molecule?
**A.** 3 nM

**Q.** And the “toxicity threshold (concentration at which all three cellular health indicators dropped to 75% of untreated)” value (ReN VM cells [3])?
**A.** 2.7 nM

**Q.** What about the “cerebrum levels relative to plasma levels” value [16] of the same molecule?
**A.** 6 fold

**Q.** What about the fraction unbound (in vitro [4]) of the same molecule?
**A.** 0.24

**Q.** And the “Papp B–A” value (human MDR1 [7])?
**A.** 145.79

**Q.** What about the fraction unbound (in vitro [8]) of the same molecule?
**A.** 0.316

**Q.** What about the fraction unbound (in vitro [9]) of the same molecule?
**A.** 0.219

**Q.** And the “estimated total brain concentration attainable in human brains” value?
**A.** ≤ 18 nM

**Q.** What about the fraction unbound (in vitro [10]) of the same molecule?
**A.** 0.219

**Q.** What about the Kp uu (in vivo) of the same molecule?
**A.** 0.27

**Q.** And the Papp A→B [11]?
**A.** 7.06 ×10⁻⁶ cm/s

**Q.** And the Papp B→A [11]?
**A.** 146 ×10⁻⁶ cm/s

**Q.** What about the “Vu,brain” value [12] of the same molecule?
**A.** 3.98 mL/g brain

**Q.** And the Abrain ([12]; sc)?
**A.** 10.58 ng/g brain

**Q.** What about the “Cbrain (mean total brain concentration)” value ([12]; sc) of the same molecule?
**A.** 19.23 nM

**Q.** And the “Cu,brain (unbound brain concentration)” value ([12]; sc)?
**A.** 4.61 nM

Reference: paper PMC9736291 (International Journal of Molecular Sciences, 2022)
